Columns and labels:
[1] = In vitro metabolic stability in liver microsomes, mouse; assay type: in vitro ADME; settings: for microsomal CLint at 2 µM: pH 7.3, read-out: CLint (µL/min/mg protein) mouse
[2] = system: leukemia cells MV-4-11; experiment: Cell proliferation assay, CELL TITER-GLO (CTG) luminescence, MV-4-11; assay type: cell-based
Procedure, shortened: (§1)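 NCI-H358 (2000 cells/well, ultra-low-attachment plates) and MV-4-11 cells were dosed 24 h after seeding at 1000 nM down to 0.1524 nM (3-fold steps). Viable-cell ATP was read by CellTiter-Glo luminescence after 96 h for NCI-H358 and 120 h for MV-4-11. IC50 came from a variable-slope fit of inhibition versus the 0 nM control.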

[3] = In vitro metabolic stability in liver microsomes, dog; assay type: in vitro ADME; settings: for microsomal CLint at 2 µM: pH 7.3
[4] = target: SHP2 (Homo sapiens (Human), UniProt Q06124); experiment: SHP2 allosteric inhibitory enzyme activity assay (DiFMUP fluorescence); assay type: biochemical; settings: read-out: SHP2 enzymatic activity IC50
Procedure, shortened: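 Human SHP2 (0.2 ng) preincubated 1 h at room temperature with 25 µM activating peptide IRS1_pY1172(dPEG8)pY1222 and compound (10-point series from 10 µM) in HEPES/NaCl/KCl/BRIJ-35/EDTA/DTT buffer. DiFMUP then added for 1 h; fluorescence at ex 340/em 450 nm, normalized to no-enzyme and no-inhibitor controls, IC50 from variable-slope fit.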

[5] = In vitro metabolic stability in liver microsomes, human; assay type: in vitro ADME; settings: for microsomal CLint at 2 µM: pH 7.3, read-out: CLint (µL/min/mg protein) human
Procedure: (§2) Example D: In Vitro Metabolic Stability of Human and Rat Liver Microsomes Test Buffer Preparation
(§3) Dissolve 1900 mg of MgCl2 in 400 mL of ultrapure water.
(§4) Dissolve 17.42 g K2HPO4 and 13.65 g KH2PO4 into 1000 mL of ultrapure water, respectively. Mix a certain proportion of K2HPO4 and KH2PO4 to adjust the pH to 7.30 ± 0.10.
(§5) Prepare a solution of 10 ng/mL labetalol and 10 ng/mL glyburide in acetonitrile and store at 4° C.
(§6) Prepare 10 mM verapamil (positive control) and test article stock solutions in DMSO. Then, with MeOH/ACN/H2O solution (1:1:2 by volume), diluted to 50 µM and 200 µM working solutions, respectively.
(§7) experiment procedure: • 1) Add 40 µL MgCl2 and 306 µL PBS to 96 wells (set blank control group, positive control group, test compound sample group, and negative control group at the same time) • 2) Add 4 µL of compound working solution to each well (4 µL of PBS buffer for blank group) (Note: the final concentration of DMSO volume in the system is ≤ 0.5%) • 3) Add 10 µL of liver microsomes (concentration: 20 mg/mL) to each well, mix well, and pre-incubate at 37° C. for 10 minutes. • 4) Add 40 µL of 10 mM NADPH working solution to each well to start the reaction (add equal volume of PBS buffer for blank control group and negative control group respectively), the total reaction volume is 400 µL. • 5) Take out 50 µL samples from the above reaction solution at 0, 5, 15, and 45 minutes, and add 400 µL of reaction stop solution to stop the reaction • 6) Shake the sample after the termination of the reaction on a shaker for 5 minutes. • 7) Centrifuge the sample at 3200 rcf for 10 minutes. After the centrifugation is complete, transfer 50 µL of the supernatant to 200 µL of H2O for dilution for LC-MS/MS analysis.
(§8) Calculations of t½ and CLint are performed using the first-order kinetic equations: […]
(§9) where k represents the elimination constant, calculated from a log-linear plot of percentage remaining versus time. t½ represents half-life. Cprotein is the concentration of liver microsomes.

[6] = In vitro metabolic stability in liver microsomes, monkey; assay type: in vitro ADME; settings: for microsomal CLint at 2 µM: pH 7.3, read-out: CLint (µL/min/mg protein) monkey
[7] = In vitro metabolic stability in liver microsomes, rat; assay type: in vitro ADME; settings: for microsomal CLint at 2 µM: pH 7.3, read-out: CLint (µL/min/mg protein) rat
Procedure: as §2, §3, §4, §5, §6, §7, §8, §9

[8] = system: lung cancer cells NCI-H358; experiment: Cell proliferation assay, CELL TITER-GLO (CTG) luminescence, NCI-H358; assay type: cell-based; settings: cultured for 96 hrs
Procedure, shortened: as §1

[9] = Homo sapiens, MV4-11, cultured for 120 hrs
[10] = Homo sapiens, NCI-H358, ultra-low adsorption plate

SHP2, sequence (Q06124 whole entry): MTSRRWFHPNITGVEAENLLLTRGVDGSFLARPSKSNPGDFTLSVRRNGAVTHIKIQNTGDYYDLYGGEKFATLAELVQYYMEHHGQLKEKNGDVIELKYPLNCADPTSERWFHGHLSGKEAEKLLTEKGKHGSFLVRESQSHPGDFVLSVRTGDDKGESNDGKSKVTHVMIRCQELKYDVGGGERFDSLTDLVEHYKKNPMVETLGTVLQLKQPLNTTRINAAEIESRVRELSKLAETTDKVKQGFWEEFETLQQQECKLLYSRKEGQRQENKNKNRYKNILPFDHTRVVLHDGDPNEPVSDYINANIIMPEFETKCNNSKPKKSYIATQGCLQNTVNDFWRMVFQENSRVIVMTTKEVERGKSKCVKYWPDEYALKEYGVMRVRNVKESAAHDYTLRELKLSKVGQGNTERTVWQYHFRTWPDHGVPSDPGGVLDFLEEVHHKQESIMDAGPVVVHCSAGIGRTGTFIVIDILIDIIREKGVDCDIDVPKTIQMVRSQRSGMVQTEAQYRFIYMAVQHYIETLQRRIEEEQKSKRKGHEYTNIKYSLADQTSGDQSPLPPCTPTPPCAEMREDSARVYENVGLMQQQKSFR

| SMILES | microsomal CLint at 2 µM [1] [µL/min/mg] | IC50 [2, 9] [nM] | microsomal CLint at 2 µM ([3]; dog, microsomes) [µL/min/mg] | IC50 [4] [nM] | microsomal CLint at 2 µM [5] [µL/min/mg] | microsomal CLint at 2 µM [6] [µL/min/mg] | microsomal CLint at 2 µM [7] [µL/min/mg] | IC50 [8, 10] [nM] | CLint (µL/min/mg protein) mouse [1] [µL/min/mg protein] | IC50 ([2]; cultured for 120 hrs) [nM] | CLint (µL/min/mg protein) dog ([3]; dog, microsomes) [µL/min/mg protein] | CLint (µL/min/mg protein) human [5] [µL/min/mg protein] | CLint (µL/min/mg protein) monkey [6] [µL/min/mg protein] | CLint (µL/min/mg protein) rat [7] [µL/min/mg protein] | IC50 ([8]; ultra-low adsorption plate) [nM] | CLint (µL/min/mg protein) dog ([3]; dog liver microsomes) [µL/min/mg protein] |
| --- | --- | --- | --- | --- | --- | --- | --- | --- | --- | --- | --- | --- | --- | --- | --- | --- |
| CN(CC#Cc1cnc(N2CCC3(CC2)Cc2ccccc2[C@H]3N)c(CO)n1)c1ccc(C(N)=O)cc1 [Compound A55, (S)-4-((3-(5-(1-amino-1,3-dihydrospiro[indene-2,4′-piperidin]-1′-yl)-6-(hydroxymethyl)pyrazin-2-yl)prop-2-yn-1-yl)(methyl)amino)benzamide] | 14.3 | 9.6 | 20.7 | 2.7 | 14.7 | 20 | 24.7 | 26 |  |  |  |  |  |  |  |  |
| N[C@@H]1c2ccccc2CC12CCN(c1ncc(C#CCOc3ccc4c(c3)CNC4=O)nc1CO)CC2 [Compound A51, (S)-5-((3-(5-(1-amino-1,3-dihydrospiro[indene-2,4′-piperidin]-1′-yl)-6-(hydroxymethy 1)pyrazin-2-yl)prop-2-yn-1-yl)oxy)isoindolin-1-one] |  |  |  | 2.4 |  |  |  |  | 16.7 | 1 | 22.2 | 9.9 | 26.2 | 12.5 | 0.8 |  |
| NC(=O)c1ccc(OCC#Cc2cnc(N3CCC4(CC3)Cc3ccccc3[C@H]4N)c(CO)n2)cc1Cl [Compound A54, (S)-4-((3-(5-(1-amino-1,3-dihydrospiro[indene-2,4′-piperidin]-1′-yl)-6-(hydroxymethyl)pyrazin-2-yl)prop-2-yn-1-yl)oxy)-2-chlorobenzamide] | 10.4 | 1.6 | 12.8 | 0.7 | 12.1 | 13.7 | 12.8 | 2.2 |  |  |  |  |  |  |  |  |
| N[C@@H]1c2ccccc2CC12CCN(c1ncc(C#CCOc3ccc(C(O)C(F)(F)F)cc3)nc1CO)CC2 (stereo partly drawn) [Compound A80, 1-(4-((3-(5-((S)-1-amino-1,3-dihydrospiro[indene-2,4′-piperidin]-1′-yl)-6-(hydroxymethyl)pyrazin-2-yl)prop-2-yn-1-yl)oxy)phenyl)-2,2,2-trifluoroethane-1-ol] | 9 | 10.4 | 3.1 | 2.8 | 2.7 | 1 | 14 |  |  |  |  |  |  |  |  |  |
| N[C@@H]1c2ccccc2CC12CCN(c1ncc(C#CCNc3ncco3)nc1CO)CC2 [Compound A60] |  |  |  | 1.6 |  |  |  |  | 15.1 | 13 |  | 9.9 | 16.9 | 10.4 | 41 | 10.8 |
| Nc1cc(OCC#Cc2cnc(N3CCC4(CC3)Cc3ccccc3[C@H]4N)c(CO)n2)ccn1 [Compound A26, (S)-(3-(1-amino-1,3-dihydrospiro [indene-2,4′-piperidine]-1′-yl)-6-(3-((2-Aminopyridin-4-yl)oxy)prop-1-yn-1-yl)pyrazin-2-yl) methanol] | 9.8 | 1.8 | 1.2 | 1.6 | 2.2 | 6.3 | 9 | 5.2 |  |  |  |  |  |  |  |  |
| Cn1nccc1NCC#Cc1cnc(N2CCC3(CC2)Cc2ccccc2[C@H]3N)c(CO)n1 [Compound A61, (S)-(3-(1-amino-1,3-dihydrospiro[indene-2,4′-piperidin]-1′-yl)-6-(3-((1-methyl-1H-pyrazol-5-yl)amino)prop-1-yn-1-yl)pyrazin-2-yl)methanol] | 14.1 | 5.1 | 14.5 | 1.8 | 13 | 6.1 | 15.9 | 9.4 |  |  |  |  |  |  |  |  |
| NC(=O)c1ccc(OCC#Cc2cnc(N3CCC4(CC3)Cc3ccccc3[C@H]4N)cn2)cc1Cl [Compound A62, (S)-4-((3-(5-(1-amino-1,3-dihydrospiro[inden-2,4′-piperidin]-1′-yl)pyrazin-2-yl)prop-2-yn-1-yl)oxy)-2-chlorobenzamide] | 9.7 | 14 | 2.9 | 1.5 | 2.6 | 19.2 | 8.1 | 56 |  |  |  |  |  |  |  |  |
| N#Cc1ccc(OCC#Cc2cnc(N3CCC4(CC3)Cc3ccccc3[C@H]4N)c(CO)n2)cc1 [Compound A12, (S)-4-((3-(5-(1-amino-1,3-dihydrospiro[indene-2,4′-piperidin]-1′-yl)-6-(hydroxymethyl)pyrazin-2-yl)prop-2-yn-1-yl)oxy)benzonitrile] | 8.3 | 3.8 | 6.2 |  | 0.2 | 7.3 | 5.5 | 7.4 |  |  |  |  |  |  |  |  |
| N[C@@H]1c2ccccc2CC12CCN(c1ncc(C#CCOc3ccc4ccc(=O)[nH]c4c3)nc1CO)CC2 [Compound A24, (S)-7-((3-(5-(1-amino-1,3-dihydrospiro[indene-2,4′-piperidin]-1′-yl)-6-(hydroxymethyl)pyrazin-2-yl)prop-2-yn-1-yl)oxy)quinolin-2(1H)-one] | 8.3 | 1.3 | 8.8 |  | 1.6 | 9.9 | 11 | 1.5 |  |  |  |  |  |  |  |  |
| NC(=O)c1cccc(NCC#Cc2cnc(N3CCC4(CC3)Cc3ccccc3[C@H]4N)c(CO)n2)c1 [Compound A81, (S)-3-((3-(5-(1-amino-1,3-dihydrospiro[indene-2,4′-piperidin]-1′-yl)-6-(hydroxymethyl)pyrazin-2-yl)prop-2-yn-1-yl)amino)benzamide] | 11.5 | 1.8 | 13.5 |  | 14.2 | 4 | 18.4 | 6.3 |  |  |  |  |  |  |  |  |
| NC(=O)Cn1cc(OCC#Cc2cnc(N3CCC4(CC3)Cc3ccccc3[C@H]4N)c(CO)n2)cn1 [Compound A82, (S)-2-(4-((3-(5-(1-amino-1,3-dihydrospiro[indene-2,4′-piperidin]-1′-yl)-6-(hydroxymethyl)pyrazin-2-yl)prop-2-yn-1-yl)oxy)-1H-pyrazol-1-yl)acetamide] | 10.5 | 9 | 3.9 |  | 8.6 | 4.5 | 5.3 | 40 |  |  |  |  |  |  |  |  |
| N[C@@H]1c2ccccc2CC12CCN(c1ncc(C#CCOc3ccc(C(F)(F)F)cc3)nc1CO)CC2 [Compound A14, (S)-(3-(1-amino-1,3-dihydrospiro[indene-2,4′-piperidin]-1′-yl)-6-(3-(4-(trifluoromethyl)phenoxy)prop-1-yn-1-yl)pyrazin-2-yl)methanol] | 6.4 |  | 7.8 |  | 1.4 | 3.1 | 1.8 |  |  |  |  |  |  |  |  |  |

Reference: patent US20230339882A1, “SHP2 INHIBITOR AND COMPOSITION AND APPLICATION THEREOF” (Betta Pharmaceuticals Co., Ltd., priority 2020, published 2023)
